The target in this assay is T1, adenosine 2A receptor (A2AR) (Mus musculus, UniProt Q60613).
T1 construct: gene Adora2a
As to the kind of experiment: inhibition of NECA ([…])-stimulated CREB phosphorylation in mouse CD8+ T cells, flow cytometry. The format is cell-based.

Our source for the IC50 values is PMC7150468, “A2AR Antagonism with DZD2269 Augments Antitumor Efficacy of Irradiation in Murine Model” (Journal of Cancer, 2020).

T1 sequence (Q60613 whole entry): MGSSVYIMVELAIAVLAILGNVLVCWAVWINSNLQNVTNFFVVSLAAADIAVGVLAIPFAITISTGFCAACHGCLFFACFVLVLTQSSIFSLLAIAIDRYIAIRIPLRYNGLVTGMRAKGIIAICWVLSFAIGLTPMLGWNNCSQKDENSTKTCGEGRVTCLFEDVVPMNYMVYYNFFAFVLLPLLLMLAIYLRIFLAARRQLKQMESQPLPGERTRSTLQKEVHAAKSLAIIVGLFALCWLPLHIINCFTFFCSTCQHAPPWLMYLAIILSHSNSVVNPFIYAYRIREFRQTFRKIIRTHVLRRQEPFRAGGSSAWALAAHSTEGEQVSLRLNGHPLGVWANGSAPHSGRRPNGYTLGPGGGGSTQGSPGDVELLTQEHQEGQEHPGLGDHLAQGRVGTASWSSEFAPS

DZD2269 displayed an IC50 of about 3 nM.
